Measurements reported in PubChem BioAssay AID372 (MTDP, 2006).
The source made the active and inactive calls. Rule as the data show it: active = inhibition above about 50%; inactive = the rest.

molecular target: Gag-Pol polyprotein (Human immunodeficiency virus type 1 group M subtype B (isolate HXB2)) (UniProt P04585); assay: RNase H inhibition, HIV 1 Gag Pol polyprotein, FRET biochemical assay, screening (AID 372); conditions: HIV-1 RT RNase H, FRET RNA/DNA substrate fluorescence

Row | Compound | IC50
1 | Cc1ccc(-c2cc(C(=O)Nc3sc(C(=O)OC(C)C)c(C)c3C(N)=O)c3ccccc3n2)s1 | inactive
2 | O=C1C=CC(=O)C(c2cc(Cl)ccc2Cl)=C1 | 2.1 µM
3 | Cc1ccc(C(=O)NC(=S)Nc2ccc(-c3nc4ccccc4s3)cc2)cc1[N+](=O)[O-] | 20 µM
4 | O=C(NC(=S)Nc1cc(-c2nc3ccccc3s2)ccc1Cl)c1ccc(F)cc1 | 9.1 µM
5 | Cc1cccc(NC(=O)c2c(NC(=O)c3ccc([N+](=O)[O-])cc3)sc3c2CCCC3)c1 | 1.5 µM
6 | Cc1sc(NC(=O)C2CCCO2)c(C(N)=O)c1C (stereo not drawn) | 3 µM
7 | O=C(Nc1sc2c(c1C(=O)Nc1cccc3ccccc13)CCCCC2)c1ccccc1F | inactive
8 | Cc1cc(Cl)ccc1OCC(=O)Nc1sc(C)c(C)c1C(N)=O | 10.7 µM
9 | CCOc1ccc(C2=CC(=O)C=CC2=O)cc1 | 0.9 µM
10 | CCOc1ccc(N2C(=O)/C(=C/c3ccc(Br)o3)C(=O)NC2=S)cc1 | 2.1 µM
11 | COc1ccccc1NC(=O)c1c(NC(=O)Cc2ccccc2)sc2c1CCCCC2 | inactive
12 | COc1ccc(-c2nc3sc(-c4ccc(OC)cc4)nc3s2)cc1 | 1.9 µM
13 | O=C1C(Cl)=C(NC(=O)c2ccccc2)C(=O)C(Cl)=C1NC(=O)c1ccccc1 | 4 µM
14 | COc1cc(/C=N\c2sc3c(c2C(=O)NCc2ccccc2)CCCC3)cc(Cl)c1O | 2.1 µM
15 | O=C1C(Cl)=CC(=NS(=O)(=O)c2ccccc2)C=C1Cl | 3.1 µM
16 | Cc1c(Cl)ccc2c1NC(C(=O)O)C1CC=CC21 (stereo not drawn) | 22 µM
17 | O=c1[nH]c(=S)n(-c2ccccc2F)c(O)c1C=C1C=CC=N1 | 2.3 µM
18 | COc1ccc2c(c1)N(C(=O)CN1C(=O)c3ccccc3C1=O)C(C)(C)c1ssc(=S)c1-2 | 3 µM
19 | COc1ccc2oc(=O)c(-c3csc(Nc4ccc(Br)cc4)n3)cc2c1 | 10.1 µM
20 | CC1=NN(c2ccc(S(N)(=O)=O)cc2)C(=O)/C1=C/c1ccc(-c2ccc(Cl)cc2Cl)o1 | 3.8 µM
21 | COc1cc(C=O)ccc1OCCCOc1cccc(Oc2ccccc2)c1 | 100 µM
22 | O=C1NC(=S)S/C1=C/c1cccc(OCc2ccc(Cl)c(Cl)c2)c1 | 4 µM

Row | Compound | IC50
23 | O=C1NC(=S)N(c2ccccc2F)C(=O)C1=Cc1ccco1 | 2.2 µM
24 | COc1ccc(C(=O)NC(=S)Nc2ccc3nn(-c4ccc(C)c(Cl)c4)nc3c2)cc1[N+](=O)[O-] | 17 µM
25 | O=S(=O)(Nc1cccc(C(F)(F)F)c1)c1ccc2ccccc2c1 | 25 µM
26 | Cc1ccc(-c2n[nH]c(=S)n2/N=C/c2ccc(O)c(O)c2O)cc1 | 1.8 µM
27 | Oc1ccc(/C=N/Nc2nncc(-c3ccccc3)n2)c(O)c1O | 6.8 µM
28 | O=C1NC(=S)N(c2ccc(Cl)cc2)C(=O)/C1=C/c1ccc(Br)o1 | 1.7 µM
29 | O=C1NC(=S)N(c2cccc(Cl)c2)C(=O)/C1=C\C=C\c1ccco1 | 7.7 µM
30 | Cc1sc(NC(=O)Cc2ccccc2)c(C(N)=O)c1C | 8 µM
31 | Cc1ccc(C)n1-c1ccc(O)c(C(=O)O)c1 | 9 µM
32 | O=C1NC(=S)N(c2ccc(Cl)cc2)C(=O)/C1=C\C=C\c1ccccc1[N+](=O)[O-] | 3.3 µM
33 | Cc1cc(-c2ccc(C=C3C(=O)NC(=S)NC3=O)o2)c([N+](=O)[O-])cc1C | 3 µM
34 | Cc1sc2nc(-c3ccc([N+](=O)[O-])cc3)[nH]c(=O)c2c1C | 0.55 µM
35 | CCC(=O)Nc1sc2c(c1C(=O)Nc1ccc(OC)cc1)CCCCC2 | inactive
36 | CCOc1ccc(NC(=O)c2c(NC(=O)c3ccco3)sc3c2CCCCC3)cc1 | 10 µM
37 | Cc1cccc(NCC(=O)N/N=C\c2c(Br)cc(Br)c(O)c2Br)c1 | 62 µM
38 | O=C1CC(=O)c2ccc3c4c(ccc1c24)C(=O)CC3=O | 3.8 µM
39 | O=C(N/N=C/c1ccc(/C=N/NC(=O)c2ccc(O)c(O)c2)cc1)c1ccc(O)c(O)c1 | 2.1 µM
40 | O=C1C=CC(=O)C(c2cccc(Cl)c2)=C1 | 2.3 µM
41 | CCOc1ccc(C(=O)Nc2ccc3c(c2)C(=O)c2ccccc2C3=O)cc1 | 8 µM
42 | Cc1cc(Br)ccc1N1C(=O)/C(=C/c2ccco2)C(=O)NC1=S | 7 µM
43 | Cc1ccc(S(=O)(=O)N=C2C=C(Cl)C(=O)C(Br)=C2)cc1 | 3.1 µM
